Values after ≈ are worked out from the molar mass of the structure shown. Read-outs that look alike come from different tables or passages of the source.
Legend:
[1] = Aquation (Ru–Cl hydrolysis) followed by UV–vis in aqueous solution; assay type: physicochemical; settings: neutral pH, 298 K; for k water (aquation rate constant) / t 1/2 (aquation half-life): 10 μM, pseudo-first-order model
Description: In view of the well-known lability of the Ru(II)–Cl bond in RACs and considering its relevance for their biological mechanism of action, the aquation process of all systems was investigated. This was performed according to literature methods spectrophotometrically, by registering the UV–vis spectra of freshly prepared aqueous solutions of complexes at neutral pH over different times, up to 12 h, at 298 K. Results for Ru-pCy1 are shown in Figure , while those for the other complexes are reported in Figures S27–S28 Supporting Information. […] The temporal evolution to the aquo-species is also further supported by comparison of spectra collected at increasing time frames and the absorption profile of the aquo species, registered by adding AgNO3 to the metal complex (Figure b). A similar behavior was also observed for the other compounds, confirming their capability to readily lose the chloride ligand. […] Hydrolysis was not observed during the stability experiments (Figure S26), likely being suppressed by the high NaCl concentration in the PBS buffer media (140 mM).
The aquation rate constants (k water) and the corresponding half-lives (t 1/2) were determined by the time-dependent absorbance changes at the MLCT maxima according to a pseudo-first-order kinetic model. The resulting values, reported in Table , range between 2.48 and 5.4 × 10^–4 s^–1.

[2] = system: B. subtilis 168; experiment: Antibacterial susceptibility, broth microdilution (OD600); assay type: cell-based, Bacillus subtilis; settings: for MIC: B. subtilis 168, MHB, 24 h; for Antibacterial activity profile (in words) / Concentration inducing approximately 50% inhibition of bacterial growth: B. subtilis; for Antibacterial activity profile (in words): normalized OD600 vs concentration; for Concentration inducing approximately 50% inhibition of bacterial growth: normalized OD600, 24 h
From the text: (§1) The antibacterial properties of Ru-pCy1–5 were investigated against Burkholderia cenocepacia strains J2315 and K56-2, two well-characterized clinical isolates of this Gram-negative pathogen, as well as against Bacillus subtilis 168, which was used as a model for a Gram-positive bacterial strain.
(§2) The obtained results are presented as normalized OD600 values, reporting the ratio of bacterial growth relative to that of the control (untreated) cells. These are plotted in Figure as a function of the compound concentrations (μg/mL), providing a quantitative assessment of the dose-dependent effects on bacterial growth of the tested ruthenium complexes.
(§3) Antimicrobial susceptibility was assessed in the following strains: B. cenocepacia K56-2 and J2315 and B. subtilis 168. For each bacterial strain, three independent biological replicates were prepared by inoculating Mueller–Hinton Broth (MHB) into sterile culture tubes, followed by overnight incubation at 37 °C with shaking at 130 rpm. Cultures were diluted to a final OD600 of 0.05 per well in 96-well microplates (Sarstedt AG & Co.) and exposed to 10 serial 2-fold dilutions of the compounds, ranging from 256 μg/mL to 0.5 μg/mL. Each biological replicate included three technical replicates. Growth inhibition was assessed visually and quantified by measuring OD600 after 24 h for B. subtilis 168 and after 48 h for B. cenocepacia strains K56-2 and J2315 using a Tecan Infinite 200 PRO plate reader.

[3] = biological target: T1, Bovine Pancreatic Ribonuclease A (Bos taurus, UniProt P61823); experiment: ESI-MS protein interaction study with RNase A; assay type: binding; settings: 1:3 protein to ruthenium ratio, 24 h, 37 °C
T1 construct: Bovine Pancreatic Ribonuclease A (Merck); purchased Merck
T1 sequence (P61823 27-150): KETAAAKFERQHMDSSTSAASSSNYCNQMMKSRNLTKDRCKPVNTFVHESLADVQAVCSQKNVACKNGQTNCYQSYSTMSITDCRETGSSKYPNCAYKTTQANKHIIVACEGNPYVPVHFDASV
Description: (§4) Accordingly, ESI-MS spectra of RNase A, SOD, and CytC incubated for 24 h with a 3-fold molar excess of each of the five different ruthenium complexes were recorded. […] This could be exacerbated by the steric hindrance of L3.
(§5) Sample preparation: stock solutions of Bovine Superoxide Dismutase SOD) (Merck), Bovine Pancreatic Ribonuclease A (Merck), and Horse Heart Cytochrome c (Merck) 10^–3 M were prepared by dissolving the lyophilized protein in LC–MS-grade water. Stock solutions 10^–2 M RACs were prepared by dissolving the samples in acetonitrile. For the experiments, an aliquot of the stock solutions of the selected protein was mixed with aliquots of each ruthenium compounds at protein-to-metal ratio 1:3 and diluted with LC–MS-grade water to 100 μM final protein concentration. The mixtures were incubated at 37 °C up to 24 h. After the incubation time, the protein solutions were sampled and diluted to a final protein concentration of 500 nM using LC–MS-grade water and adding 0.1% v/v of formic acid just before the infusion in the mass spectrometer.
(§6) Instrumental parameters: the ESI mass spectra were acquired through direct infusion at 7 μL min^–1 flow rate in a TripleTOF 5600+ high-resolution mass spectrometer (Sciex, Framingham, MA, U.S.A.), equipped with a DuoSpray interface operating with an ESI probe.
RNase: positive polarity, Ionspray Voltage Floating 5500 V, Temperature 0, Ion source Gas 1 (GS1) 40 L/min; Ion source Gas 2 (GS2) 0; Curtain Gas (CUR) 15 L/min, Declustering Potential (DP) 100 V, Collision Energy (CE) 10 V, acquisition range 1000–2600 m/z.
(§7) For acquisition, Analyst TF software 1.7.1 (Sciex) was used, and deconvoluted spectra were obtained by using the Bio Tool Kit microapplication v.2.2 embedded in Peak-ViewTM software v.2.2 (Sciex).

[4] = system: B. cenocepacia J2315; experiment: Antibacterial susceptibility, broth microdilution (OD600); assay type: cell-based, Burkholderia cenocepacia; settings: for MIC: B. cenocepacia J2315, MHB, 48 h
From the text: as §1, §2, §3

[5] = system: B. cenocepacia K56-2; experiment: as above; assay type: cell-based, Burkholderia cenocepacia; settings: B. cenocepacia K56-2, MHB, 48 h
From the text: as §1, §2, §3

[6] = biological target: T2, Bovine Superoxide Dismutase (SOD) (Bos taurus, UniProt P00442); experiment: ESI-MS protein interaction study with SOD; assay type: binding; settings: 1:3 protein to ruthenium ratio, 24 h, 37 °C
T2 construct: purchased Merck
T2 sequence (P00442 whole entry): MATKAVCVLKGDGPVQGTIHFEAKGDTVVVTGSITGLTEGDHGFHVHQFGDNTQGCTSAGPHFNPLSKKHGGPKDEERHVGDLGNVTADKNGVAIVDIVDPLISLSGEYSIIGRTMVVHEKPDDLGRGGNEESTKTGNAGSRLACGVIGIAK
Description: as §4, §5, §6
SOD: positive polarity, IonSpray Voltage Floating 5500 V, Temperature 0, Ion source Gas 1 (GS1) 40 L/min; Ion source Gas 2 (GS2) 0; Curtain Gas (CUR) 15 L/min, Declustering Potential (DP) 200 V, Collision Energy (CE) 10 V, acquisition range 1500–3500 m/z.
as §7

[7] = biological target: T3, Horse Heart Cytochrome c (Equus caballus, UniProt P00004); experiment: ESI-MS protein interaction study with CytC; assay type: binding; settings: 1:3 protein to ruthenium ratio, 24 h, 37 °C
T3 construct: Horse Heart Cytochrome c (Merck); purchased Merck
T3 sequence (P00004 whole entry): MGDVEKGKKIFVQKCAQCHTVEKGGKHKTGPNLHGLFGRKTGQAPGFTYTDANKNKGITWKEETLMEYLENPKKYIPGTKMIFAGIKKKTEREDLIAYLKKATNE
Description: as §4, §5
Instrumental parameters: the ESI mass spectra were acquired through direct infusion at 7 μL min^–1 flow rate in a TripleTOF 5600+ high-resolution mass spectrometer (Sciex, Framingham, MA, U.S.A.), equipped with a DuoSpray interface operating with an ESI probe. […]

[8] = Water–octanol partition coefficient, shake-flask method (Log P pH7.4); assay type: physicochemical; settings: PBS pH 7.4 / n-octanol, 16 μM
Description: The study was performed by using the shake-flask method, obtaining the water–octanol partition coefficients of complexes in PBS buffer at pH = 7.4 (Log P pH7.4), as listed in Table .
The octanol–water distribution coefficients were determined at pH 7.4 using the shake-flask method. , Briefly, solutions of the tested compounds (16 μM) in phosphate buffer (pH 7.4) were mixed with n-octanol in flasks at three different PBS:n-octanol ratios (1:1, 0.5:1, 2:1). The mixtures were manually shaken to allow equilibration between the organic and aqueous phases. Subsequently, phase separation was achieved by centrifugation at 4000 rpm for 10 min. The concentrations of ruthenium compounds in both phases were then determined spectrophotometrically. The log P 7.4 values were calculated as the mean value of the log[Ru-pCy1–5]-oct/[Ru-pCy1–5]PBS/4 values obtained from the three different PBS:n-octanol ratio samples for each complex.

[9] = Stability in CH3CN/PBS solution by UV–vis over 72 h; assay type: physicochemical; settings: 1 × 10^–5 M in CH3CN/PBS (CH3CN 1% v/v), room temperature
Description: To gain insights into the suitability of RACs for biological purposes, their stability in aqueous solution was investigated before studying their interactions with representative proteins (SOD, RNase A, and CytC) by ESI-MS analysis (vide infra). Measurements were performed under strictly controlled conditions (temperature, pH, and complex concentration), namely, at a concentration of 1 × 10^–5 M in CH3CN/PBS solution (CH3CN 1% v/v) at room temperature, over a total of 72 h. The resulting time-dependent absorption profiles are reported in Figure S26 (Supporting Information).
Spectrofluorimetric-grade solvents were used for the preparation of all solutions. The PBS solution (pH 7.4, KCl 2.7 mM, NaCl 140 mM, phosphate 10 mM) was prepared according to the standard procedure. RACs were dissolved in CH3CN and then diluted to reach a final concentration of 1 × 10^–5 M in CH3CN/buffer solution (CH3CN 1% v/v). A PerkinElmer Lambda 900 spectrophotometer was employed to record the UV–Visible absorption spectra using 10 mm path-length quartz cuvettes.

[10] = pKa of coordinated water ligand by UV–vis pH titration; assay type: physicochemical; settings: absorbance at 435 nm, Henderson–Hasselbalch fit, 298 K
From the text: Lastly, the tendency of the coordinated water ligand to undergo deprotonation was also considered. This has been investigated for the lead compound Ru-pCy1, by recording the UV–vis spectra of batchwise aqueous solutions of the complex at different pH values and monitoring the changes in the MLCT region (Figure S29).
(§8) The acid–base behavior of the coordinated water ligand to the metal scaffold was also considered. To this aim, the UV–vis spectra of batchwise aqueous solutions of the lead compound Ru-pCy1 at different pH at 298 K were registered, and the changes in the MLCT region were monitored. […] A slightly higher value (8.82 ± 0.08) was instead determined potentiometrically under mixed solvent conditions (H2O/EtOH 4:1 v/v, NaClO4 0.1 M, 298 K, ligand concentration 1 mM), required to ensure the full solubilization of the complex.

[11] = pKa of coordinated water ligand, potentiometric; assay type: physicochemical; settings: H2O/EtOH 4:1 v/v, NaClO4 0.1 M, 298 K, 1 mM
Description: as §8

Ru–Cl hydrolysis (spectral variation over time) ([1]; aqueous solution, up to 12 h) | MIC [2] [µg/mL] | Adduct formation with RNase A [3] | MIC [4] [µg/mL] | MIC [5] [µg/mL] | Adduct formation with SOD [6] | Adduct formation with CytC [7] | Log P pH7.4 [8] | MIC ([2]; Bacillus subtilis, read-out: MIC) [µg/mL] | MIC ([4]; Burkholderia cenocepacia, read-out: MIC) [µg/mL] | MIC ([5]; Burkholderia cenocepacia, K562, read-out: MIC) [µg/mL] | t 1/2 (aquation half-life) [1] [min] | pK a of coordinated water ligand [10] | pK a of coordinated water ligand [11] | SMILES | Antibacterial activity profile (in words) [2] | k water (aquation rate constant) [1] | Concentration inducing approximately 50% inhibition of bacterial growth [2] [µg/mL] | Stability in aqueous solution [9] | Concentration inducing approximately 50% inhibition of bacterial growth ([4]; B. cenocepacia J2315, normalized OD600, 48 h) [µg/mL]
did not show appreciable variations | 256 | did not interact | 256 | > 256 | did not interact | did not interact | 0.57 ± 0.19 | – | – | – | – | – | – | Cc1ccc(C(C)C)cc1.F[P-](F)(F)(F)(F)F.[Cl-].[Ru+2].c1ccc2nc(-c3ccc4ccccc4n3)ccc2c1 [Ru-pCy3] | intermediate antibacterial characteristics | – | – | – | –
– | – | – | – | – | – | – | – | 16 (≈ 49.5 µM) | 32 (≈ 99 µM) | 64 (≈ 198 µM) | – | – | – | O=C(N[C@H](CO)[C@H](O)c1ccc([N+](=O)[O-])cc1)C(Cl)Cl [chloramphenicol, reference compound] | – | – | – | – | –
– | 256 | form stable adducts | 256 | > 256 | form stable adducts | – | 0.91 ± 0.30 | – | – | – | 25.7 ± 1.2 | – | – | Cc1ccc(C(C)C)cc1.F[P-](F)(F)(F)(F)F.[Cl-].[Ru+2].c1ccc(-c2ccnc3c2ccc2c(-c4ccccc4)ccnc23)cc1 [Ru-pCy2] | notable inhibitory effect | 4.5 ± 0.2 × 10^–4 s^–1 | ~8 | – | –
– | 128 | form stable adducts | 128 | 256 | form stable adducts | – | 0.80 ± 0.30 | – | – | – | 46.5 ± 2.0 | 8.3 ± 0.1 | 8.82 ± 0.08 | Cc1ccc(C(C)C)cc1.F[P-](F)(F)(F)(F)F.[Cl-].[Ru+2].c1ccc2cc3nc4c5cccnc5c5ncccc5c4nc3cc2c1 [Ru-pCy1] | notable inhibitory effect | 2.5 ± 0.1 × 10^–4 s^–1 | ~64 | moderate tendency to precipitate at the longest time points | ~32
